This note sets out measurements from patent publication US9642854B2, “Flavanoid compounds and process for preparation thereof” (Council of Scientific & Industrial Research, priority 2009, dated 2017).

Each structure is given as a SMILES string. “Also recorded” adds a separate entry of the source.

One data set has as its system Swiss albino mice. Description: Acute toxicity evaluation in mice. Type of data set: in vivo. Particulars: up to 0.5 g/kg body weight orally, 15 days observation. An excerpt: Five animals of Swiss albino mice strain were used for this purpose. The dosage up to 0.5 g/kg body weight given orally per mice and the animals were kept for 15 days under observation. It was observed that the mice were not affected at the dose level of 0.5 g/kg body weight of CPP-1.

The test system of data set [1] is gastric parietal cell. Description: Histamine-stimulated acid secretion in gastric parietal cell ([14C]-aminopyrine uptake ratio). The following applies: histamine 0.1 mM. Type of data set: cell-based, rabbit. The method, then: Dose-dependent inhibition of histamine-stimulated aminopyrine (AP) uptake ratio in parietal cell suspension after CPP-1 treatment was measured.
(§1) Parietal cells (PC) were isolated from New Zealand White rabbits (weighing ^˜2.5 kg) essentially according to Berglindh (1984) and as modified by Mazzeo et al. (1988). The PC preparations were nearly 90% pure and viable. The effect of CPP-1 on basal and histamine stimulated acid secretion in parietal cells was examined as follows. The PC suspension was incubated for 10 min at 37° C. with gentle stirring and continuous slow top gassing with oxygen. The [^14C]-aminopyrine (115 mCi/mmole) was added to the suspension at […], and incubation was continued for another 10 min. One-milliliter aliquot of PC (^˜5×10^6 cells) was added to various concentrations of CPP-1 in the presence and the absence of histamine (0.1 mM) and incubated for 20 min at 37° C. with slow shaking and oxygen top gassing. At the end of the incubation, the PC suspensions were centrifuged, supernatant carefully aspired off and the pellets solubilized in scintillation fluid containing Triton X-100. The resulting solution was counted in a liquid scintillation counter. The aminopyrine accumulation was determined as the ratio of intra- to extracellular aminopyrine according to Mazzeo et al. (1988).

For data set [2], the system named is gastric parietal cell. Description: Basal acid secretion in gastric parietal cell ([14C]-aminopyrine uptake ratio). Type of data set: cell-based, rabbit. The method, then: Dose-dependent inhibition of aminopyrine (AP) uptake ratio in parietal cell suspension after CPP-1 treatment was measured.
as §1

Data set [3] has as its target T1, pig gastric H^+,K^+-ATPase (Sus scrofa, UniProt P19156).
T1 construct: tubulovesicular and apical membranes, isolated from freshly slaughtered pig gastric mucosa; from tissue; host or cells: pig gastric mucosa (membrane fraction by density gradient centrifugation)
The data set can be described thus: Gastric H+,K+-ATPase activity assay. The data set is classed as biochemical. The method, then:
The data are averages of 3-4 determinations each carried out in triplicate. The assay system contained 10 mM PIPES-Tris (pH 6.8), 2 mM each of ATP and MgCl2 with or without 10 mM KCl and about […] in a final volume of 1 mL. Both blank and experimental tubes with or without CPP-1 at different concentrations were preincubated with otherwise complete assay mixture at 37° C. for 10 min before initiating the reaction with the substrate ATP. K^+-stimulated activity referred to as H^+,K^+-ATPase activity, was calculated as the difference between the activity in presence of Mg^2+ plus K^+ and the basal activity (Mg^2+-ATPase) in presence of Mg2^+ alone. The specific activity of H^+,K^+-ATPase in control sets was in the range of 40-50 μmole Pi/mg protein/h.
The effect of CPP-1 on gastric H^+K^+-ATPase was investigated. Isolation of pig gastric mucosal membranes, rich in H^+,K^+-ATPase activity, was carried out by density gradient centrifugation technique (Ray, 1978). The enzyme assay system contained 10 mM PIPES-Tris (pH 6.8), 2 mM each of ATP and MgCl with or without 10 mM KCl and about […] in a final volume of 1 mL. Both blank and experimental tubes with or without CPP-1 at different concentrations were preincubated with otherwise complete assay mixture at 37° C. for 10 min before initiating the reaction with the substrate ATP. After appropriate time of incubation with ATP at 37° C., the reaction was terminated with the addition of 1 mL of ice-cold TCA (14%, w/v). The liberated inorganic phosphate (Pi) was estimated essentially by the method of Sanui (1974). K^+-stimulated activity referred to as H^+,K^+-ATPase activity, was calculated as the difference between the activity in presence of Mg^2+ plus K^+ and the basal activity (Mg^2+-ATPase) in presence of Mg^2+ alone. The specific activity of H^+,K^+-ATPase was expressed as micromoles of Pi liberated per hour per milligram protein. The data are averages of 3-4 determinations each carried out in triplicate. The specific activity of H^+,K^+-ATPase in control sets was in the range of 40-50 μmole Pi/mg protein/h.

In another data set the test system is H. pylori. Description: Anti H. pylori screening by disc diffusion susceptibility assay. The data set is classed as cell-based, Helicobacter pylori. The following applies: 72 h; for Inhibition zone diameter (score): 100 and 200 mg/disc (so in the source). In short, it runs like this: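 Clinical strains HP001, HP002 and ATCC 700392, 43504, 49503 (10^8 CFU/mL) spread on supplemented BHI agar; 5 mm discs loaded with 100 and 200 […] compound in ethanol or DMSO. Zones read after 72 h microaerophilic growth at 37 °C; scored + (10-20 mm), ++ (20-30 mm), +++ (>30 mm), Nil <10 mm.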

T1 sequence (P19156 2-1034 limits assumed): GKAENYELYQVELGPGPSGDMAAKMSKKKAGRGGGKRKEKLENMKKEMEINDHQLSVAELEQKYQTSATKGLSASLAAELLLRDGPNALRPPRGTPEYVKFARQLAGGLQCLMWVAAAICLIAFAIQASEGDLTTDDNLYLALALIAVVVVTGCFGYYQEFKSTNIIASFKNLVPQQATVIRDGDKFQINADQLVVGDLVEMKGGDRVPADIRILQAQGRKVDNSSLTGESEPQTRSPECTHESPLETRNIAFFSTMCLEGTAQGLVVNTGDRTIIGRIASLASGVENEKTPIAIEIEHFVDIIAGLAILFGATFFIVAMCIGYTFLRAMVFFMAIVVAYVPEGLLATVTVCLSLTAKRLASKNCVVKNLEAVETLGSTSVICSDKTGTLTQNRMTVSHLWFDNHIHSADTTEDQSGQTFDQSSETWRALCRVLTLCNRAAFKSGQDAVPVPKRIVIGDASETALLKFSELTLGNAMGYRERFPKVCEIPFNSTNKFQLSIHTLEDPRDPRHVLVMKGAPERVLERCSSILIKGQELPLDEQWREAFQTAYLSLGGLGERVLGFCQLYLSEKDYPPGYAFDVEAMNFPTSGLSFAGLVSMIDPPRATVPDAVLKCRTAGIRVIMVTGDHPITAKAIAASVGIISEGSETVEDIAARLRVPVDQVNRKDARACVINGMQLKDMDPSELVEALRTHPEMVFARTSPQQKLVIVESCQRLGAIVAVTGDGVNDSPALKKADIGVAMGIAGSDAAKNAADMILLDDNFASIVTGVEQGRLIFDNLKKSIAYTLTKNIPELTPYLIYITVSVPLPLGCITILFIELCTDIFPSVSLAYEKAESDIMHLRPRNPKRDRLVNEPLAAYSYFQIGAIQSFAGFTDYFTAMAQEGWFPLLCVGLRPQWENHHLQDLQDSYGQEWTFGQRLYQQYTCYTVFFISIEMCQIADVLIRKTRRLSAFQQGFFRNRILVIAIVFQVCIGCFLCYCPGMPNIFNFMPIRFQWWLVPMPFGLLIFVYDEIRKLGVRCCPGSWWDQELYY
T1 sequence (P18434 whole entry partner): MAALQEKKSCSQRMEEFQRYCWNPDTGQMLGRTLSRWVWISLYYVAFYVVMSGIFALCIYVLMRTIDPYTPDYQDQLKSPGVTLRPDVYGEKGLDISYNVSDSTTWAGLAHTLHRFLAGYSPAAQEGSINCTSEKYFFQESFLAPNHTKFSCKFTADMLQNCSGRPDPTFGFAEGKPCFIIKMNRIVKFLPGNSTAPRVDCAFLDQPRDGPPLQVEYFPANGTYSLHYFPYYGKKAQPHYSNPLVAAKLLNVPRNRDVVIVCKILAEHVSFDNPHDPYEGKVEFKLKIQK

A word on the IC50: it is the concentration at which inhibition is half-maximal. `O=c1cc(-c2ccccc2)oc2cc(OCCCCCCN3CCCCC3)cc(O)c12` [CPP-1, 5-Hydroxy-2-phenyl-7-(6-piperidin-1-yl-hexyloxy)-chromen-4-one]: the mortality entry in the data set with Swiss albino mice was “did not show any mortality; also recorded: No mortality and behavioral abnormality was noted”. For the same compound, the IC50 was approximately 15 µg/mL with gastric parietal cell [1] (Oryctolagus cuniculus, rabbit gastric parietal cell); approximately 5 µg/mL in the data set on gastric parietal cell [2] (Oryctolagus cuniculus, rabbit gastric parietal cell, aminopyrine uptake ratio); 23.7 µM in data set [3]. Also, the “activity relative to cimetidine, histamine-stimulated secretion” value in the data set on gastric parietal cell [1] is “more active than cimetidine”. Besides, in the data set on gastric parietal cell [1], the “fold less potent than omeprazole in inhibiting histamine-stimulated secretion” value is “about 5 fold”. In addition, the “fold less potent than omeprazole in inhibiting basal acid secretion” value in the data set with gastric parietal cell [2] (parietal cells) is 2-3 fold. The “potency relative to cimetidine, basal acid secretion” value in the data set with gastric parietal cell [2] (parietal cells) is given as “much more potent than cimetidine”. For the same compound, the “Percent inhibition of H^+, K^+-ATPase activity” value in data set [3] (1 mg/assay (so in the source)) is 20%; in data set [3] (5 mg/assay (so in the source)) it was 30%. The “inhibition of H^+,K^+-ATPase” value in data set [3] (dose range of 1-10 μg/assay) was 10-50%. Moreover, the “Inhibition zone diameter (score)” value is reported as “++ (20-30 mm as ^++)” in the data set with H. pylori (ATCC standard strain 43504); “+++ (that of >30 mm as ^+++)” in the data set with H. pylori (ATCC standard strain 49503); “++ (20-30 mm as ^++)” in the data set with H. pylori (ATCC standard strain 700392); “++ (20-30 mm as ^++)” in the data set on H. pylori (clinical strain HP001); “+++ (that of >30 mm as ^+++)” with H. pylori (clinical strain HP002). Moreover, the zone of inhibition at 100 µg/disc in the data set on H. pylori (Helicobacter pylori, 100 and 200 μg/disc, majority of the strains, read-out: Activity class by inhibition zone diameter) is more than 30 mm.
